# Measurements: patent US8242166B2, “C(10) ethyl ester and C(10) cyclopropyl ester substituted taxanes” (Florida State University Research Foundation, Inc., priority 2008, dated 2012)
# Like-named read-outs stand apart in the source and are kept apart here.
# Columns and labels:
# [1] = tested on: HCT116; assay: MTT cytotoxicity (IC50), HCT116; type: cell-based; details: Homo sapiens, HCT-116, 72 h, read-out: IN Vitro IC50 (nm) HCT116
# Experimental: (§1) All cell lines were maintained in RPMI-1640 tissue culture medium (TCM, supplemented with antibiotics and 10% fetal bovine serum) and cultured at 37° C. in humidified air containing 5% CO2. To assess the antiproliferative effects of the test compounds, 172 μL of tumor cell suspension (1.45×10^4 cells/ml) were added to each well of a 96-well plate and incubated for 24 h at 37° C. in 5% CO2 in air to allow cells to adhere. Seven 2-fold drug dilutions in TCM/DMSO were performed in triplicate in separate 96-well plates and 28 μL was transferred to the wells containing tumor cells (200 μL final volume/0.1% DMSO). Plates were incubated for 72 h and cell viability was determined by adding 50 μL of warm TCM containing 5 mg/mL MTT (3-[4,5-dimethylthiazol-2-yl]-2,5-diphenyltetrazolium bromide) to each well and incubating for 1 h at 37° C. Plates were processed and the absorbances of the resulting solutions were measured by a plate reader at 570 nm. […] (GraphPad Prism version 4.00 for Windows). Studies were conducted by Taxolog, Inc., Tallahassee, Fla.
# [2] = tested on: DLD-1; assay: MTT cytotoxicity (IC50), DLD-1; type: cell-based; details: Homo sapiens
# Experimental: as §1, with “Compound 17932 was tested in four of these cell lines, while the remaining compounds were tested in all of these cell lines. All” for “All”
# [3] = tested on: TK-10; assay: MTT cytotoxicity (IC50), TK-10; type: cell-based; details: Homo sapiens, 72 h, read-out: IN Vitro IC50 (nm) TK10
# Experimental: as §1, with “Compound 17932 was tested in four of these cell lines, while the remaining compounds were tested in all of these cell lines. All” for “All”
# [4] = tested on: HT29 human tumor xenografts; assay: HT29 xenograft study e139 (Example 23); type: in vivo, nude mice
# [5] = tested on: HT29 human tumor xenografts; assay: HT29 xenograft study e212, oral and i.v. (Example 26); details: for CR (complete regression) / NTR NTRa/u / NTR NTRm / PR (partial regression) / TFS (tumor-free survivor) / TR (treatment-related death): n=6
# From the text: (§2) The formulation for oral studies was an ethanol and Cremophor formulation while the formulation for compound 18365 and compound 19244 dosed i.v. was 5% ethanol and 95% Liposyn II 20%.
# [6] = tested on: human A375 melanoma xenograft; assay: A375 xenograft study e209 (Example 27); details: 30 mg/kg iv q4d × 4; for CR (complete regression) / NTR NTRa/u / NTR NTRm / PR (partial regression) / TFS (tumor-free survivor) / TR (treatment-related death): n=6; for % TGD / Median TTE / T-C: vehicle EL
# Experimental: The endpoint was a tumor volume of 2,000 mm^3 and the study was terminated on Day 56. Efficacy was assessed by tumor growth delay and the number of partial and complete regressions. Animals with a CR that persisted through Day 56 were classified as long-term tumor-free survivors (TFS).
# [7] = tested on: human MX-1 breast carcinoma; assay: MX1 xenograft study e219R1, i.v. single dose (Example 17); details: for CR (complete regression) / NTR (non-treatment-related death) / PR (partial regression) / TFS (tumor-free survivor) / TR (treatment-related death): n=5
# [8] = tested on: HT29 human tumor xenografts; assay: HT29 xenograft study e210, oral and i.v. (Example 25); details: for CR (complete regression) / NTR NTRa/u / NTR NTRm / PR (partial regression) / TFS (tumor-free survivor) / TR (treatment-related death): n=6
# From the text: as §2
# [9] = MTT, 72 h, read-out: IN Vitro IC50 (nm) DLD1
# [10] = Resistance MDR1+, read-out: DLD1 Colon (Table 4, quantity not named; IC50 values as Table 2)
# [11] = 25 mg/kg iv q4d × 4, vehicle EL
# [12] = 50 mg/kg po q4d × 4, vehicle EC
# [13] = every four day schedule for four doses
compound,measurement,setting,value
CCC(=O)O[C@H]1C(=O)[C@@]2(C)C([C@H](OC(=O)c3ccccc3)[C@]3(O)C[C@H](OC(=O)[C@H](O)[C@@H](NC(=O)OC4CCCC4)c4cccs4)C(C)=C1C3(C)C)[C@]1(OC(C)=O)CO[C@@H]1C[C@@H]2O (stereo partly drawn) [Compound 18926],IC50,[1],0.3 nM
same,IC50,[2]; [9],0.8 nM
same,IC50,[2]; [10],0.8 nM
same,IC50,[3],0.3 nM
same,MTV (Day 61),[4]; 20 mg/kg i.v. q4d×4,83 mm^3
same,PR responses,"[4]; 20 mg/kg i.v. q4d×4, six mice",5
same,Day 51 mm^3 (tumor size),[4]; 20 mg/kg iv q4d × 4,142.3 mm^3
same,Day 54 mm^3 (tumor size),[4]; 20 mg/kg iv q4d × 4,147 mm^3
same,Max. BW Loss %; Day,[4]; 20 mg/kg iv q4d × 4,−20.7%; Day 16
same,Number of Death NTR,"[4]; 20 mg/kg iv q4d × 4, N=6",0
same,Number of Death TR,"[4]; 20 mg/kg iv q4d × 4, N=6",0
same,CR (complete regression),[5]; 25 mg/kg iv q4d × 4,5
same,NTR NTRa/u,[5]; 25 mg/kg iv q4d × 4,0
same,NTR NTRm,[5]; 25 mg/kg iv q4d × 4,0
same,PR (partial regression),[5]; 25 mg/kg iv q4d × 4,0
same,TFS (tumor-free survivor),[5]; 25 mg/kg iv q4d × 4,5
same,TR (treatment-related death),[5]; 25 mg/kg iv q4d × 4,1
same,% TGD,[5]; [11],237.14%
same,BW Nadir,[5]; [11],13.5% (17)
same,"MTV (n), Day 59",[5]; [11],0.00 (5) mm^3
same,Median TTE,[5]; [11],59 days
same,T-C,[5]; [11],41.5 days
same,CR (complete regression),[5]; 50 mg/kg po q4d × 4,1
same,NTR NTRa/u,[5]; 50 mg/kg po q4d × 4,0
same,NTR NTRm,[5]; 50 mg/kg po q4d × 4,0
same,PR (partial regression),[5]; 50 mg/kg po q4d × 4,5
same,TFS (tumor-free survivor),[5]; 50 mg/kg po q4d × 4,1
same,TR (treatment-related death),[5]; 50 mg/kg po q4d × 4,0
same,% TGD,[5]; [12],237.14%
same,BW Nadir,[5]; [12],10.4% (17)
same,"MTV (n), Day 59",[5]; [12],20.25 (6) mm^3
same,Median TTE,[5]; [12],59 days
same,T-C,[5]; [12],41.5 days
same,BW Nadir,[6],13.3% (18)
same,"MTV(n), Day 56",[6],0.00 (6) mm^3
same,CR (complete regression),[6],6
same,NTR NTRa/u,[6],0
same,NTR NTRm,[6],0
same,PR (partial regression),[6],0
same,TFS (tumor-free survivor),[6],6
same,TR (treatment-related death),[6],0
same,% TGD,[6],210.08%
same,Median TTE,[6],56 days
same,T-C,[6],37.94 days
same,% TGD,[7]; 7.5 mg/kg iv qd × 1,16.46%
same,BW Nadir,[7]; 7.5 mg/kg iv qd × 1,−7.6% (3)
same,Median TTE,[7]; 7.5 mg/kg iv qd × 1,37.43 days
same,T-C,[7]; 7.5 mg/kg iv qd × 1,5.29 days
same,activity (statistical significance),[7]; 7.5 mg/kg iv qd × 1,non-significant activity
same,maximum group mean BW loss,[7]; 7.5 mg/kg iv qd × 1,7.6%
same,CR (complete regression),[7]; 7.5 mg/kg iv qd × 1,0
same,NTR (non-treatment-related death),[7]; 7.5 mg/kg iv qd × 1,0
same,PR (partial regression),[7]; 7.5 mg/kg iv qd × 1,0
same,TFS (tumor-free survivor),[7]; 7.5 mg/kg iv qd × 1,0
same,TR (treatment-related death),[7]; 7.5 mg/kg iv qd × 1,0
same,% TGD,[7]; 15 mg/kg iv qd × 1,89.79%
same,BW Nadir,[7]; 15 mg/kg iv qd × 1,−6.6% (4)
same,"MTV (n), Day 60",[7]; 15 mg/kg iv qd × 1,0.00 (4) mm^3
same,Median TTE,[7]; 15 mg/kg iv qd × 1,61 days
same,T-C,[7]; 15 mg/kg iv qd × 1,28.86 days
same,maximum group mean BW loss,[7]; 15 mg/kg iv qd × 1,6.6%
same,CR (complete regression),[7]; 15 mg/kg iv qd × 1,4
same,NTR (non-treatment-related death),[7]; 15 mg/kg iv qd × 1,0
same,PR (partial regression),[7]; 15 mg/kg iv qd × 1,0
same,TFS (tumor-free survivor),[7]; 15 mg/kg iv qd × 1,4
same,TR (treatment-related death),[7]; 15 mg/kg iv qd × 1,0
same,% TGD,[7]; 30 mg/kg iv qd × 1,89.79%
same,BW Nadir,[7]; 30 mg/kg iv qd × 1,−15.5% (5)
same,"MTV (n), Day 60",[7]; 30 mg/kg iv qd × 1,0.00 (5) mm^3
same,Median TTE,[7]; 30 mg/kg iv qd × 1,61 days
same,T-C,[7]; 30 mg/kg iv qd × 1,28.86 days
same,maximum group mean BW loss,[7]; 30 mg/kg iv qd × 1,15.5%
same,CR (complete regression),[7]; 30 mg/kg iv qd × 1,5
same,NTR (non-treatment-related death),[7]; 30 mg/kg iv qd × 1,0
same,PR (partial regression),[7]; 30 mg/kg iv qd × 1,0
same,TFS (tumor-free survivor),[7]; 30 mg/kg iv qd × 1,5
same,TR (treatment-related death),[7]; 30 mg/kg iv qd × 1,0
same,minimal effective dose,"[7]; iv qd × 1, lowest dose with statistically significant results and at least one D61 survivor or regression",15 mg/kg
CCC(=O)O[C@H]1C(=O)[C@@]2(C)C([C@H](OC(=O)c3ccccc3)[C@]3(O)C[C@H](OC(=O)[C@H](O)[C@@H](NC(=O)OC4CCC4)c4cccs4)C(C)=C1C3(C)C)[C@]1(OC(C)=O)CO[C@@H]1C[C@@H]2O (stereo partly drawn) [Compound 19244],IC50,[1],0.4 nM
same,IC50,[2]; [9],1.8 nM
same,IC50,[2]; [10],1.8 nM
same,IC50,[3],0.4 nM
same,% TGD,[8]; 30 mg/kg iv q4d × 4,214.3%
same,BW Nadir,[8]; 30 mg/kg iv q4d × 4,11.1% (16)
same,"MTV (n), Day 60",[8]; 30 mg/kg iv q4d × 4,36.00 (6) mm^3
same,Median TTE,[8]; 30 mg/kg iv q4d × 4,60 days
same,T-C,[8]; 30 mg/kg iv q4d × 4,40.91 days
same,CR (complete regression),[8]; 30 mg/kg iv q4d × 4,1
same,NTR NTRa/u,[8]; 30 mg/kg iv q4d × 4,0
same,NTR NTRm,[8]; 30 mg/kg iv q4d × 4,0
same,PR (partial regression),[8]; 30 mg/kg iv q4d × 4,5
same,TFS (tumor-free survivor),[8]; 30 mg/kg iv q4d × 4,1
same,TR (treatment-related death),[8]; 30 mg/kg iv q4d × 4,0
same,% TGD,[8]; 60 mg/kg po q4d × 4,214.3%
same,BW Nadir,[8]; 60 mg/kg po q4d × 4,−8.5% (16)
same,"MTV (n), Day 60",[8]; 60 mg/kg po q4d × 4,0.25 (6) mm^3
same,Median TTE,[8]; 60 mg/kg po q4d × 4,60 days
same,T-C,[8]; 60 mg/kg po q4d × 4,40.91 days
same,CR (complete regression),[8]; 60 mg/kg po q4d × 4,4
same,NTR NTRa/u,[8]; 60 mg/kg po q4d × 4,0
same,NTR NTRm,[8]; 60 mg/kg po q4d × 4,0
same,PR (partial regression),[8]; 60 mg/kg po q4d × 4,2
same,TFS (tumor-free survivor),[8]; 60 mg/kg po q4d × 4,4
same,TR (treatment-related death),[8]; 60 mg/kg po q4d × 4,0
same,activity in the HT29 xenograft tumor model,[8]; [13],oral and IV activity
same,activity in the HT29 xenograft tumor model,[5]; [13],oral and IV activity
same,BW Nadir,[6],10.4% (18)
same,"MTV(n), Day 56",[6],0.00 (6) mm^3
same,CR (complete regression),[6],6
same,NTR NTRa/u,[6],0
same,NTR NTRm,[6],0
same,PR (partial regression),[6],0
same,TFS (tumor-free survivor),[6],6
same,TR (treatment-related death),[6],0
same,% TGD,[6],210.08%
same,Median TTE,[6],56 days
same,T-C,[6],37.94 days
